# Key:
# gray hair = test: Case study Patient A: hydroxychloroquine and curcumin added at end of therapy, gray hair; assay type: in vivo, human; conditions: hydroxychloroquine 200 mg per day for one month plus curcumin 3 g per day, added at end of therapy (FIG. 7)
# Excerpt: Patient reported the following improvements—including the *very surprising* disappearance of minor symptoms they had not been aware of beforehand. A summary follows: • Eyes. Vision blur resolved almost completely. • Brain. Improved cognitive functions short-and-long-term memory (they reported faster typing). • Numbness. Some minor parts of their body that had been numb since the 2008 neuropathy, such as the tips of the toes, started to regain sensitivity. • Body. Even in a condition of little exercise while being hospitalized the patient lost about 5 kg in 2 weeks and seemed more toned and in generally better condition (FIG. 2). • Asthma. Patient A reported better breathing. […] Joints in hands started swelling, and then healing (see FIG. 5). Arthritis has been reported both with spirochetes and Chlamydia Pneumoniae infections (Steere, 1987 [19], Porritt, 2016 [20]). • Prostate. Patient A never had prostate problems. However, they reported a larger urine flow and more frequent nocturnal penile tumescence. • Skin. Lesions and sclerotic plaques on their hands, which dated back from 2008, started healing. They resembled a sub-clinical manifestation of Acrodermatitis Chronica Atrophicans, which appears in phase 3 of European borreliosis (see FIG. 3). Incidentally, the healing process highlighted a small-scale bull's eye patterns, with a white patch and a red dot at the center (FIG. 4). […]
# spirochetes = test: Case study Patient A: penicillin G, then with Lycopene and Allicin, for neuro-spirochetosis; assay type: in vivo, human; conditions: 24 million units per day intravenously every 4 hours, after a few days
# Method: A patient (below, “Patient A”) was hospitalized on 10 Jun. 2019 and reported the following symptoms: • Fatigue; • Rash similar to a syphilis rash Patient A experienced 6 months previous; • Blurred vision; and • Headache and impaired thinking.
# Based on the above results Patient A was treated with aqueous crystalline penicillin G 24 million units per day, administered intravenously every 4 hours.
# On 23 Feb. […] However, other spirochetes were present which could create systemic infection. Among these bacteria, Patient A had Brachyspira, a slow-growing anaerobic spirochete that can colonize the large intestine of animals including humans. While Brachyspira is known for causing diarrhea, it was recently discovered that it could also attack other organs. It was found in the Alzheimer's brain (Miklossy, 2011 [16]) and has been recently been associated with other human chronic conditions (Hampson, 2017 [17]). One human experimental infection was recently performed, where a volunteer drank cultures of Brachyspira isolated from an Australian Aboriginal child with diarrhea, and reported headaches, among other symptoms. (Hampson, 2017 [18]).
# After a number of medical consultations, Patient A agreed to follow a non-standard protocol, extending penicillin treatment s to a 6+week course for neuro-spirochetosis. […]
SMILES,Reversal of gray hair (gray hair),"Effect of therapy (patient feeling better, vision improving) (spirochetes)"
CCN(CCO)CCCC(C)Nc1ccnc2cc(Cl)ccc12 (stereo not drawn) [hydroxychloroquine],partial reversal of gray hair,–
COc1cc(/C=C/C(=O)CC(=O)/C=C/c2ccc(O)c(OC)c2)ccc1O [curcumin],partial reversal of gray hair,–
"CC1(C)S[C@@H]2[C@H](NC(=O)Cc3ccccc3)C(=O)N2[C@H]1C(=O)O [aqueous crystalline penicillin G, penicillin G]",–,seemed effective
